Patent publication US20180125796A1, “TREATMENT OF MYCOBACTERIAL INFECTION” (priority 2015, published 2018)

Columns and labels:
[1] = test system: mCherry-expressing M. bovis BCG; type: cell-based
[2] = cited from earlier work; for neurological side effects: adult mice, Andersson et al. 2004; for CNS penetration: mouse, in vivo
[3] = test system: GSL biosynthesis; details: cited from earlier work
[4] = mouse models of GSL storage diseases; cited from earlier work
[5] = test system: total ganglioside and GM1 content; details: Kasperzyk et al. 2005; cited from earlier work
[6] = test system: M. smegmatis; assay: Clearance of M. smegmatis in primary human macrophages; type: cell-based, Mycobacterium smegmatis; details: primary human macrophages treated with U18666A; FIG. 14
[7] = test system: M. smegmatis; assay: Clearance of M. smegmatis in wild-type mouse macrophages; type: cell-based, Mycobacterium smegmatis; details: U18666A-treated wild-type mouse macrophages; FIG. 13
[8] = test system: M. smegmatis; assay: Clearance of M. smegmatis in RAW 246.7 cells; type: cell-based, Mycobacterium smegmatis; details: RAW 246.7 cells incubated with U18666A (1 μg/ml, 48 hours) prior to infection; relative to untreated cells; FIG. 12
[9] = test system: GSL; type: cell-based
[10] = test system: NPC phenotypes; type: cell-based
[11] = test system: LE/Lys Ca^2+; type: cell-based
[12] = test system: lysosomal expansion/storage; assay: Lysotracker fluorescence (lysosomal expansion/storage); type: cell-based; details: FIG. 6B
Protocol: Cells were live stained with 50 nM Lysotracker green (Molecular Probes) in PBS at room temperature for 30 min prior to washing.

[13] = test system: GSL levels; details: mice; Platt 1997; cited from earlier work
[14] = test system: ER/neutral Ca^2+ store; assay: Cytosolic Ca^2+ / ER Ca^2+ store content probed with ionomycin; type: cell-based
[15] = test system: NPC1; assay: TDM on bone marrow-derived macrophages from NPC1 heterozygous mice; type: cell-based, mouse
[16] = test system: BCG; type: cell-based, M. bovis BCG
[17] = test system: sarco-endoplasmic reticulum Ca^2+-ATPase (SERCA); details: Bilmen et al. 2001; cited from earlier work

## OC[C@H]1O[C@@H]2O[C@H]3[C@H](O)[C@@H](O)[C@@H](O[C@H]4[C@H](O)[C@@H](O)[C@@H](O[C@H]5[C@H](O)[C@@H](O)[C@@H](O[C@H]6[C@H](O)[C@@H](O)[C@@H](O[C@H]7[C@H](O)[C@@H](O)[C@@H](O[C@H]8[C@H](O)[C@@H](O)[C@@H](O[C@H]1[C@H](O)[C@H]2O)O[C@@H]8CO)O[C@@H]7CO)O[C@@H]6CO)O[C@@H]5CO)O[C@@H]4CO)O[C@@H]3CO [3-cyclodextrin, β-cyclodextrin]
[1]
  mycobacterial clearance, agent alone: neither of these molecules alone promoted mycobacterial clearance

## CCCCN1C[C@H](O)[C@@H](O)[C@@H](O)[C@H]1CO [NB-DGJ, N-butyldeoxygalactonojirimycin]
[2]
  neurological side effects: not to cause neurological side effects
  CNS penetration: penetrate the CNS
[3]
  inhibition of GSL biosynthesis relative to NB-DNJ: comparably to NB-DNJ
[4]
  tolerability: very well tolerated
[5]
  total ganglioside and GM1 content in cerebrum-brainstem: marked reduction

## CCN(CC)CCO[C@H]1CC[C@@]2(C)C(=CC[C@@H]3[C@@H]2CC[C@]2(C)C(=O)CC[C@@H]32)C1 [U18666A]
[6]
  clearance of M. smegmatis: Impaired clearance of M. smegmatis
[7]
  clearance of M. smegmatis: Impaired clearance of M. smegmatis
[8]
  ability to clear non-pathogenic M. smegmatis: impaired ability to clear non-pathogenic M. smegmatis

## trehalose dimycolate [TDM from M. bovis]
[9]
  GSL levels: GSL accumulation
[10]
  GM1 trafficking: GM1 mistrafficking
[11]
  LE/Lys Ca^2+ levels: reduced LE/Lys Ca^2+ levels

## glucose monomycolate [GMM]
[12]
  Lysotracker fluorescence, NPC-like lysosomal expansion/storage: only modest lysosomal expansion that did not reach statistical significance

## trehalose monomycolate [TMM]
[12]
  Lysotracker fluorescence, NPC-like lysosomal expansion/storage: only modest lysosomal expansion that did not reach statistical significance

## glucose monomycolate [GMM from non-pathogenic M. smegmatis]
[12]
  Lysotracker fluorescence, NPC-like lysosomal expansion/storage: minimal effects

## CCCCN1C[C@H](O)[C@@H](O)[C@H](O)[C@H]1CO [miglustat, N-butyldeoxynojirimycin]
[13]
  duration of treatment after which the effect on GSL levels stabilizes: 10 days
  onset of decrease in GSL levels: measurable decrease in GSL levels within a day of treatment
[2]
  neurological side effects: not to cause neurological side effects
  CNS penetration: penetrate the CNS
[1]
  mycobacterial clearance, agent alone: neither of these molecules alone promoted mycobacterial clearance

## COc1ccc(/C=C/C(=O)C(C)(C)C(=O)/C=C/c2ccc(OC)c(OC)c2)cc1OC [FLLL31]
[14]
  effect on cytosolic Ca^2+ levels: has no effect on cytosolic Ca^2+ levels
[1]
  BCG clearance: had no effect

## trehalose dimycolate [TDM]
[12]
  Lysotracker fluorescence, NPC-like lysosomal expansion/storage: greatest increase in Lysotracker fluorescence
[15]
  susceptibility of Npc1+/- macrophages (50% of wild-type NPC1 protein) to inhibition by TDM, versus wild-type: more susceptible to inhibition

## COc1cc(/C=C/C(=O)CC(=O)/C=C/c2ccc(O)c(OC)c2)ccc1O [curcumin]
[16]
  mycobacterial burden: significantly reduced mycobacterial burden
[14]
  effect on cytosolic Ca^2+ levels: raises cytosolic [Ca^2+ ]
[1]
  BCG clearance: promoted BCG clearance
  bacterial clearance in cells loaded with the Ca^2+ chelator BAPTA: abrogated
  level of infection (average fluorescence intensity of mCherry-expressing BCG): significantly lower level of infection
[17]
  Ca^2+ uptake by SERCA: inhibits Ca^2+ uptake
